“Also recorded” adds a separate entry of the source. Like-named read-outs stand apart in the source and are kept apart here. Primed or numbered codes have the meaning given here. FITC′ = not defined here
B1: cyclin G, endogenous, in primary mouse hepatocytes (other)
chain: MIEVLTTDSQKLLHQLNTLLEQESRCQPKVCGLKLIESAHDNGLRMTARLRDFEVKDLLSLTQFFGFDTETFSLAVNLLDRFLSKMKVQAKHLGCVGLSCFYLAVKATEEERNVPLATDLIRISQYRFTVSDLMRMEKIVLEKVCWKVKATTAFQFLQLYYSLVHDTLPFERRNDLNFERLEAQLKACHCRIIFSKAKPSVLALSILALEIQALKYVELTEGVECIQKHSKISGRDLTFWQELVSKCLTEYSSNKCSKPNGQKLKWIVSGRTARQLKHSYYRITHLPTIPETIC

Columns and labels:
[1] = test system: HCV E2; assay: in vitro phosphorylation assay of AP50 by recombinant E2 (cell-free, 32P ATP); format: biochemical; conditions: peptide added to the phosphorylation assay
Protocol: AP50 was immunopurified from untransfected primary hepatocytes and subjected to heat inactivation of any associated kinases. Recombinant wild type or mutated E2 were combined with AP50 in the presence of ^32P ATP (MP Biomedicals cat. #35020) and kinase buffer (50 mM Tris-HCL, pH 7.5, 5 mM MgCl2). The reaction was incubated at room temperature for 1 hour, and run on an SDSPAGE, transferred to a membrane and exposed to film overnight, as described previously (8; 57; 63).

[2] = test system: HCV genotypes 1, 3, and 4; assay: HCV infection/replication in primary human hepatocytes, HCV RNA by RT-PCR; format: cell-based
Excerpt: (§1) Hepatocytes were obtained (from Tissue Transformation Technologies [Edison, N.J.]) from anonymous organ donors without liver disease that were not suitable for liver transplantation for technical but not medical reasons. These donors are negative For Hepatitis A, B and C, CMV, HIV, HTLV ½, and RPR-STS. Hepatocytes cultures with >5% apoptosis by annexin-V assays and/or increases >3-fold in ALT were discarded.
Hepatocytes were isolated from an encapsulated liver sample by a modified two-step perfusion technique introduced by Seglen (63). Briefly, the dissected lobe was placed into a custom-made perfusion apparatus and two to five hepatic vessels were cannulated with tubing attached to a multi-channel manifold. A liver fragment (150 to 500 g) was perfused initially (recirculation technique) with calcium-free HBSS supplemented with 0.5 mM EGTA for 20 to 30 min and then with 0.05% collagenase [Sigma] dissolved in L-15 medium (with calcium) at 37° C. until the tissue was fully digested. The digested liver was removed, immediately cooled with ice-cold L-15 medium and the cell suspension was strained through serial progressively smaller stainless steel sieves, with a final filtration through 100-micron and 60-micron nylon mesh. The filtered cell suspension was aliquoted into 250-ml tubes and centrifuged three times at 40 g for 3 min at 4° C. […]

[3] = test system: E2; assay: binding of the mutant AP50 peptide to E2; design: species or system HCV
[4] = test system: HCV-infected primary human hepatocytes; assay: cell permeability and co-localization with E2 in HCV-infected primary human hepatocytes (immuno-staining, FITC tag); format: cell-based
Excerpt: as §1
Hepatocytes were isolated from an encapsulated liver sample by a modified two-step perfusion technique introduced by Seglen (63). Briefly, the dissected lobe was placed into a custom-made perfusion apparatus and two to five hepatic vessels were cannulated with tubing attached to a multi-channel manifold. A liver fragment (150 to 500 g) was perfused initially (recirculation technique) with calcium-free HBSS supplemented with 0.5 mM EGTA for 20 to 30 min and then with 0.05% collagenase [Sigma] dissolved in L-15 medium (with calcium) at 37° C. until the tissue was fully digested. The digested liver was removed, immediately cooled with ice-cold L-15 medium and the cell suspension was strained through serial progressively smaller stainless steel sieves, with a final filtration through 100-micron and 60-micron nylon mesh. The filtered cell suspension was aliquoted into 250-ml tubes and centrifuged three times at 40 g for 3 min at 4° C. After the last centrifugation, the cells were re-suspended, in HypoThermosol-FRS [BioLife Solutions, Inc] combined in one tube and placed on ice.
Cells were centrifuged at 700 rpm for 5 min at 4° C., the supernatant was removed and the cells were washed with Hanks Wash Solution ([…] KCl 0.4 g/l; 4.4 mM KH2PO 0.06 g/l; […] NaCl 8 g/l; 3.4 mM Na2HPO4 0.048 g/l; 20 μL CaCl2 (2M)) three times. […]
Fluorescent labels were observed using a triple-channel fluorescence microscope or a laser scanning confocal microscope. […] At least 100 cells were analyzed per experimental point (9). The nuclear morphology was analyzed by staining cells with TOPRO-3 (R&D Systems).

[5] = test system: HCV-infected primary human hepatocytes; assay: cell toxicity (LDH in medium) of HCV-infected primary human hepatocytes; format: cell-based
Protocol: Toxicity of HCV E2 mutants to human hepatocyte cultures was determined by measuring lactic dehydrogenase (LDH) (Sigma) and alanine aminotransferase (ALT) (Weiner Laboratories) in the medium. Positive (Jo2 Ab) and negative (untreated cells) control samples were determined in parallel. LDH assays of culture media were measurements of cellular leakage that indicates cell injury. ALT was enriched in hepatocytes and it's presence in serum or cell culture media was a classic indicator of hepatocyte injury. Indeed, it is the FDA's gold standard for hepatocellular toxicity.

[6] = target: HCV E2 Y228F mutant (hepatitis C virus (HCV), UniProt P26664 384-746, Y228F); assay: co-immunopurification with anti-cyclin G antibodies, primary mouse hepatocytes
[7] = target: HCV E2 Y228E mutant (hepatitis C virus (HCV), UniProt P26664 384-746, Y228E); assay: as above
[8] = listed as dominant negative peptide of the AP50 phospho-acceptor
[9] = primary hepatocyte infection system

| Molecule | auto-phosphorylation of E2 [1] | phosphorylation of AP50 by recombinant E2 (E2 kinase activity) [1, 8] | phosphorylation of AP50 by recombinant E2 (E2 kinase activity) ([1]; listed as dominant negative peptide of the E2 consensus phosphorylation site) | phosphorylation of AP50 by recombinant E2 (E2 kinase activity) ([1]; listed as mutant AP50 peptide) | HCV replication (HCV RNA by RT-PCR) ([2]; peptide added at the time of HCV infection, genotypes 1, 3, and 4) | HCV infection [2, 9] | binding to E2 [3] | cell permeability [4] | co-localization / association with HCV E2 [4] | co-localization / association with HCV E2 [4, 8] | toxicity at termination of the experiment ([5]; 120 hours, in the presence of the peptide) | LDH levels (hepatocyte toxicity) ([5]; peptide added to the media at 72 hours post HCV infection) | hepatocyte toxicity induced by the peptide [5, 9] | binding result [6] | binding result [7] |
| --- | --- | --- | --- | --- | --- | --- | --- | --- | --- | --- | --- | --- | --- | --- | --- |
| NH2-QGEVQRRRQRRKKRGYGGGG-FITC (H-QGEVQRRRQRRKKRGYGGGG-{FITC′}) [AP50 peptide] | unaffected | blocks the in vitro kinase activity of E2 | blocked | able to block the phosphorylation of AP50 by recombinant E2 in vitro; also recorded: blocks AP50 phosphorylation by E2 | inhibits HCV replication of genotypes 1, 3, and 4 | inhibits HCV infection | high affinity | cell permeable | co-localized with HCV E2 | associates with E2 | comparable to that of uninfected cells | LDH levels began to decrease | without inducing hepatocyte toxicity |  |  |
| B1 |  |  |  |  |  |  |  |  |  |  |  |  |  | no binding | no binding |
